Measurements from patent US9622482B2, “Methods for increasing oil palm yield” (Valent BioSciences Corporation, priority 2014, dated 2017).

Assays:
oil palm fruit [1] = conditions: postharvest application, detached bunches; cited from earlier work
oil palm = assay: Pre-harvest bunch-directed spray on oil palm, fruit abscission (cumulative loose fruit and loose mass); assay type: in vivo, oil palm (cross between Compact and Ghana); conditions: for % Difference with UTC (Cumulative Loose Fruit) / % Difference with UTC (Cumulative Loose Mass) / Cumulative Loose Mass / Cumulative Loose Fruit: single spray 100 mL/bunch; for % Difference with UTC (Cumulative Loose Fruit) / % Difference with UTC (Cumulative Loose Mass) / Cumulative Loose Mass: 14 days; for Cumulative Loose Fruit: counted for 14 days
Method: A study was conducted in a plantation in Costa Rica to compare the effects of single bunch-directed applications of: (1) untreated control (water sprayed); (2) AVG at 500 ppm active ingredient (a.i.); (3) 240 ppm a.i. of STS; (4) 720 ppm a.i. of STS; (5) 2,200 ppm a.i. of STS; and (6) 6,600 ppm a.i. of STS. In this study, AVG was provided in a formulation as AVG-HCl at a concentration of 20%. STS was prepared using a 100 mM sodium thiosulfate treatment. For each treatment, 23 palms were randomly selected covering about 15 hectares. The variety of plants used was a cross between Compact and Ghana. The plants were three years old at the time of treatment. A CO2 sprayer was used to spray all treatments (100 mL/bunch) to bunches with 1 to 4 loose fruits. The time required to spray each bunch was about 8 seconds at 20 psi using a 2.0 full cone nozzle. The treatments were applied once per bunch. Ten and thirteen bunches per treatment were sprayed on Apr. 15 and 22, 2015, respectively. Cumulative loose fruit (CLF) and cumulative loose mass (CLM) counts were determined on a daily basis for 14 days with the exception of day 4 and day 9 (for second spray only) and day 11 (after initial spray only) as measure to objectively quantify fruit abscission. An electronic balance was used to weigh all fruit. All loose fruit on the bunch, branches and on the ground was counted and weighed.

oil palm fruit [2] = conditions: preharvest application to attached bunches; cited from earlier work
[3] = 240 to 6,600 ppm a.i., overall statement

Q: Which “abscission of oil palm fruit” value (oil palm fruit [1]) does the source give for `NOCC(=O)O` [AOA, aminooxyacetic acid] here?
A: delayed or suppressed abscission

Q: Which “% Difference with UTC (Cumulative Loose Fruit)” value (oil palm; 500 ppm a.i.) does the source give for `NCCO/C=C/[C@H](N)C(=O)O` [AVG, aminoethyoxyvinylglycine, reference compound] here?
A: 71.4%

Q: What about the “% Difference with UTC (Cumulative Loose Mass)” value (oil palm; 500 ppm a.i.) of the same compound?
A: 70.8%

Q: And the “Cumulative Loose Mass” value (oil palm; 500 ppm a.i.)?
A: 321 g

Q: And the “Cumulative Loose Fruit” value (oil palm; 500 ppm a.i.)?
A: 72.0

Q: Which “increase of oil content” value (oil palm fruit [2]) does the source give for `O=P(O)(O)CCCl` [ethephon, 2-chloroethyl phosphonic acid] here?
A: 7%

Q: For silverthiosulfate [STS], which “% Difference with UTC (Cumulative Loose Fruit)” value (oil palm; 240 ppm a.i.) is on record?
A: 14.4%

Q: What about the “% Difference with UTC (Cumulative Loose Mass)” value (oil palm; 240 ppm a.i.) of the same compound?
A: −0.4%

Q: And the “Cumulative Loose Mass” value (oil palm; 240 ppm a.i.)?
A: 1106 g

Q: What about the “Cumulative Loose Fruit” value (oil palm; 240 ppm a.i.) of the same compound?
A: 129.0

Q: What about the “effect on cumulative loose fruit” value (oil palm; [3]) of the same compound?
A: did not consistently decrease

Q: And the “effect on cumulative loose mass” value (oil palm; [3])?
A: did not consistently decrease

Q: What about the “% Difference with UTC (Cumulative Loose Fruit)” value (oil palm; 720 ppm a.i.) of the same compound?
A: 18.7%

Q: And the “% Difference with UTC (Cumulative Loose Mass)” value (oil palm; 720 ppm a.i.)?
A: 11.3%

Q: And the “Cumulative Loose Mass” value (oil palm; 720 ppm a.i.)?
A: 977 g

Q: What about the “Cumulative Loose Fruit” value (oil palm; 720 ppm a.i.) of the same compound?
A: 124.7

Q: What about the “% Difference with UTC (Cumulative Loose Fruit)” value (oil palm; 2,200 ppm a.i.) of the same compound?
A: −15.7%

Q: What about the “% Difference with UTC (Cumulative Loose Mass)” value (oil palm; 2,200 ppm a.i.) of the same compound?
A: −26.4%

Q: And the “Cumulative Loose Mass” value (oil palm; 2,200 ppm a.i.)?
A: 1392 g

Q: What about the “Cumulative Loose Fruit” value (oil palm; 2,200 ppm a.i.) of the same compound?
A: 159.1

Q: And the “% Difference with UTC (Cumulative Loose Fruit)” value (oil palm; 6,600 ppm a.i.)?
A: 25.9%

Q: And the “% Difference with UTC (Cumulative Loose Mass)” value (oil palm; 6,600 ppm a.i.)?
A: 7.3%

Q: And the “Cumulative Loose Mass” value (oil palm; 6,600 ppm a.i.)?
A: 1020 g

Q: What about the “Cumulative Loose Fruit” value (oil palm; 6,600 ppm a.i.) of the same compound?
A: 117.5
